Measurements published in paper PMC5303003 (Bioorganic & medicinal chemistry, 2017).
Where two headings read alike, the source gives them in different places.

Legend:
σ1 receptor [1] = molecular target: T1, σ1 receptor (Cavia porcellus, UniProt Q60492); conditions: read-out: Ki-σ1 of racemic compounds, previously reported; cited from earlier work
σ1 receptor [2] = molecular target: T1, σ1 receptor; test: σ1 receptor competitive binding assay; conditions: Ki σ1, (+)-isomer, guinea pig brain membranes, mean ± SEM
[3] = molecular target: emopamil binding protein (EBP); conditions: read-out: Ki for emopamil binding protein (EBP); cited from earlier work
[4] = molecular target: vesicular acetylcholine transporter (VAChT); conditions: cited from earlier work
σ1 receptor [5] = test: MicroPET blocking study with σ1 ligand pretreatment in nonhuman primate; assay type: in vivo, cynomolgus macaque; conditions: 1.0 mg/kg i.v. 5 min prior to tracer injection, NHP, versus baseline
σ1 receptor [6] = conditions: cited from earlier work; for Ki: read-out: Ki-σ1
σ2 receptor = conditions: read-out: Ki-σ2; cited from earlier work

T1 sequence (Q60492 whole entry): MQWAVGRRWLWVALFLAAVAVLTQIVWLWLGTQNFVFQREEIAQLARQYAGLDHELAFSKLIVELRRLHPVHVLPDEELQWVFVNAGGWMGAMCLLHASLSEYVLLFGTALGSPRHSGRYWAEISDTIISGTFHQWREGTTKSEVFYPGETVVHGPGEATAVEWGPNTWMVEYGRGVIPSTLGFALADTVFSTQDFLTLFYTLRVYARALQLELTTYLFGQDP

O=C(c1ccc(F)cc1)C1CCN(C2CCN(Cc3ccc(F)cc3)CC2O)CC1 (racemic) [14a]
Ki (σ1 receptor [1]): 0.48 nM

O=C(c1ccc(F)cc1)C1CCN(C2CCN(Cc3ccc(F)cc3)CC2O)CC1 (single isomer, unassigned; (+)) [(+)-14a]
Ki (σ1 receptor [2]): 0.14 ± 0.02 nM

COc1ccc(CCN2CCN(CCCc3ccccc3)CC2)cc1OC [SA4503]
Ki [3]: 1.7 nM
Ki ([4]; read-out: Ki for VAChT): 50 nM

O=C(Cc1ccccc1F)NC1CCC(Cc2ccccc2)CC1 (centres unmarked) [Yun122, N-(4-benzylcyclohexyl)-2-(2-fluorophenyl)acetamide]
effect of pretreatment on brain uptake of (−)-[18F]TZ3108 (σ1 receptor [5]): significantly reduced
Ki (σ1 receptor [6]): 3.6 nM
Ki (σ2 receptor): 667 nM

COc1ccc(CCN2CCN(CCCc3ccccc3)CC2)cc1O[11CH3] [[^11C]SA4503, 1-(4-methoxy-3-(methoxy-^11C)phenethyl-^11C)-4-(3-phenyl-propyl)piperazine]
selectivity for σ1 over VAChT (σ1 receptor [6]): 11 fold
selectivity for σ1 over σ2 receptor (σ1 receptor [6]): 55 fold

O=c1sc2cc(CCCF)ccc2n1CCN1CCCCCC1 [[^18F]FTC-146, ^18F-6-(3-fluoropropyl)-3-(2-(azepan-1 yl)ethyl)benzo-[d]thiazol-2(3H)-one]
Ki (σ1 receptor [6]): 0.0025 nM
Ki ([4]; read-out: Ki-VAChT): 450 nM
